Measured values published in patent US12661416B2, “Combinations of imaging agent conjugates and application thereof” (Curadel Surgical Innovations, Inc., priority 2023, dated 2026).

Legend:
[1] = In vitro stability in warm serum (normalized absorbance / absorption spectra over time); assay type: in vitro ADME; conditions: compared to ZW800-1
Procedure: cRGD-ZW700-1c ZW700-1c, and ZW-800-1 are shown in FIG. 1 and are characterized with respect to their optical properties and stability in vitro. Commercial NIR fluorophores, such as IRDye™800-RS (RS-800), IRDye800-CW (CW-800), Cy5.5, and Cy7 have various degrees of sulfonation in order to achieve aqueous solubility.
The normalized absorbance of ZW800-1 and ZW700-1c in 37° C. buffered FBS, pH 7.4 over time from 0 to 60 hours are shown in FIGS. 2-4.

[2] = Stability in serum; assay type: in vitro ADME

stability (normalized absorbance over time) ([1]; 37° C. buffered FBS, pH 7.4, 0 to 60 hours) | stability over time (changes in absorption spectra during metabolism in warm serum) ([1]; warm serum) | stability in serum [2] | Structure (SMILES)
extreme stability | high stability | – | CC1(C)C(/C=C/C(=C/C=C2/N(CCC[N+](C)(C)C)c3ccc(S(=O)(=O)[O-])cc3C2(C)C)c2ccc(CCC(=O)[O-])cc2)=[N+](CCC[N+](C)(C)C)c2ccc(S(=O)(=O)[O-])cc21 [ZW700-1c]
– | – | stable in serum for days | N=C(N)NCC[C@@H]1NC(=O)[C@H](CCCCN)NC(=O)[C@@H](Cc2ccc(O)cc2)NC(=O)[C@H](C(=O)O)NC(=O)CNC1=O [cRGD]
